# Assay results: US9730447B2, “Fungicidal amides” (E I DU PONT DE NEMOURS AND COMPANY, priority 2013, dated 2017)
# Marks after values point to notes of the source that are not given here.
# Tested on: Septoria tritici
# Assay: Test C: preventive spray on wheat seedlings, Septoria tritici (wheat leaf blotch), visual disease rating
# Format: in vivo
# Conditions: values marked with asterisk (*), meaning not given
# From the text: (§1) General protocol for preparing test suspensions for Tests A-E: the test compounds were first dissolved in acetone in an amount equal to 3% of the final volume and then suspended at the desired concentration (in ppm) in acetone and purified water (50/50 mix by volume) containing 250 ppm of the surfactant Trem® 014 (polyhydric alcohol esters). The resulting test suspensions were then used in Tests A-E. Compounds were sprayed with either a 40 ppm or 10 ppm (*) test suspension to the point of run-off on the test plants which is the equivalent of a rate of 160 g ai/ha or 40 g ai/ha, respectively.
# (§2) The test suspension was sprayed to the point of run-off on wheat seedlings. The following day the seedlings were inoculated with a spore suspension of Septoria tritici (the causal agent of wheat leaf blotch) and incubated in a saturated atmosphere at 24° C. for 48 h, and then moved to a growth chamber at 20° C. for 21 days, after which time visual disease ratings were made.
# (§3) Results for Tests A-E are given in Table A. In the Table, a rating of 100 indicates 100% disease control and a rating of 0 indicates no disease control (relative to the controls). A dash (-) indicates no test results.
row,SMILES,Test C disease control rating
1,O=C(Nc1ccccc1-c1cnc(-n2ccc(C(F)(F)F)n2)c(Cl)c1)c1ccsc1 [compound 112],77* %
2,Cc1cc(C)c(C(=O)Nc2ccccc2-c2cnc(-n3ccc(C(F)(F)F)n3)c(Cl)c2)s1 [compound 116],99* %
3,O=C(Nc1ccccc1-c1cnc(-n2ccc(C(F)(F)F)n2)c(Cl)c1)c1occc1Br [compound 117],99* %
4,Cc1occc1C(=O)Nc1ccccc1-c1cnc(-n2ccc(C(F)(F)F)n2)c(Cl)c1 [compound 118],42* %
5,O=C(Nc1ccccc1-c1cnc(-n2ccc(C(F)(F)F)n2)c(Cl)c1)c1ccsc1Cl [compound 120],98* %
6,Cc1oncc1C(=O)Nc1ccccc1-c1cnc(-n2ccc(C(F)(F)F)n2)c(Cl)c1 [compound 128],42* %
7,Cn1ncnc1C(=O)Nc1ccccc1-c1cnc(-n2ccc(C(F)(F)F)n2)c(Cl)c1 [compound 129],88* %
8,Cc1sccc1C(=O)Nc1ccccc1-c1cnc(-n2ccc(C(F)(F)F)n2)c(Cl)c1 [compound 138],99* %
9,O=C(Nc1ccccc1-c1cnc(-n2ccc(C(F)(F)F)n2)c(Cl)c1)c1ccsc1Br [compound 139],98* %
10,CSc1ccsc1C(=O)Nc1ccccc1-c1cnc(-n2ccc(C(F)(F)F)n2)c(Cl)c1 [compound 141],76* %
11,CSc1sccc1C(=O)Nc1ccccc1-c1cnc(-n2ccc(C(F)(F)F)n2)c(Cl)c1 [compound 142],88* %
12,N#Cc1cc(-c2ccccc2NC(=O)c2sccc2I)cnc1-n1ccc(C(F)(F)F)n1 [compound 143],100* %
13,Cn1cc(C(=O)Nc2ccccc2-c2cnc(-n3cnc(C(F)(F)F)c3)c(F)c2)c(C(F)F)n1 [compound 153],99* %
14,Cc1ncsc1C(=O)Nc1ccccc1-c1cnc(-n2ccc(C(F)(F)F)n2)c(Cl)c1 [compound 164],96* %

# Tested on: Puccinia recondite f. sp. tritici
# Assay: Test D: preventive spray on wheat seedlings, Puccinia recondite f. sp. tritici (wheat leaf rust), visual disease rating
# Format: in vivo
# Conditions: 100 = 100% disease control, 0 = no control, unmarked values
# From the text: as §1
# as §2, with “Puccinia recondite f. sp. tritici;” for “Septoria tritici”, “rust)” for “blotch)”, “20°” for “24°”, “24” for “48”, “6” for “21”
# as §3
row,SMILES,Test D disease control rating [%]
1,N#Cc1cc(-c2ccccc2NC(=O)c2ncccc2C(F)(F)F)cnc1-n1ccc(C(F)(F)F)n1 [compound 105],100
2,Cn1cc(C(=O)Nc2ccccc2-c2cnc(-n3ccc(C(F)(F)F)n3)c(C#N)c2)c(C(F)F)n1 [compound 106],100
3,Cc1nc(C(F)(F)F)c(C(=O)Nc2ccccc2-c2cnc(-n3ccc(C(F)(F)F)n3)c(C#N)c2)s1 [compound 107],99
4,N#Cc1cc(-c2ccccc2NC(=O)c2nccnc2Cl)cnc1-n1ccc(C(F)(F)F)n1 [compound 108],96

# Same assay, conditions: values marked with asterisk (*), meaning not given
row,SMILES,Test D disease control rating
1,O=C(Nc1ccccc1-c1cnc(-n2ccc(C(F)(F)F)n2)c(Cl)c1)c1ccsc1 [compound 112],0* %
2,Cc1cc(C)c(C(=O)Nc2ccccc2-c2cnc(-n3ccc(C(F)(F)F)n3)c(Cl)c2)s1 [compound 116],99* %
3,O=C(Nc1ccccc1-c1cnc(-n2ccc(C(F)(F)F)n2)c(Cl)c1)c1occc1Br [compound 117],99* %
4,Cc1occc1C(=O)Nc1ccccc1-c1cnc(-n2ccc(C(F)(F)F)n2)c(Cl)c1 [compound 118],68* %
5,O=C(Nc1ccccc1-c1cnc(-n2ccc(C(F)(F)F)n2)c(Cl)c1)c1ccsc1Cl [compound 120],100* %
6,Cc1oncc1C(=O)Nc1ccccc1-c1cnc(-n2ccc(C(F)(F)F)n2)c(Cl)c1 [compound 128],67* %
7,Cn1ncnc1C(=O)Nc1ccccc1-c1cnc(-n2ccc(C(F)(F)F)n2)c(Cl)c1 [compound 129],17* %
8,Cc1sccc1C(=O)Nc1ccccc1-c1cnc(-n2ccc(C(F)(F)F)n2)c(Cl)c1 [compound 138],100* %
9,O=C(Nc1ccccc1-c1cnc(-n2ccc(C(F)(F)F)n2)c(Cl)c1)c1ccsc1Br [compound 139],100* %
10,CSc1ccsc1C(=O)Nc1ccccc1-c1cnc(-n2ccc(C(F)(F)F)n2)c(Cl)c1 [compound 141],97* %
11,CSc1sccc1C(=O)Nc1ccccc1-c1cnc(-n2ccc(C(F)(F)F)n2)c(Cl)c1 [compound 142],97* %
12,N#Cc1cc(-c2ccccc2NC(=O)c2sccc2I)cnc1-n1ccc(C(F)(F)F)n1 [compound 143],100* %
13,Cn1cc(C(=O)Nc2ccccc2-c2cnc(-n3cnc(C(F)(F)F)c3)c(F)c2)c(C(F)F)n1 [compound 153],99* %
14,Cc1ncsc1C(=O)Nc1ccccc1-c1cnc(-n2ccc(C(F)(F)F)n2)c(Cl)c1 [compound 164],91* %

# Tested on: Erysiphe graminis f. sp. tritici
# Assay: Test E: preventive spray on wheat seedlings, Erysiphe graminis f. sp. tritici (wheat powdery mildew), visual disease rating
# Format: in vivo
# Conditions: 100 = 100% disease control, 0 = no control, unmarked values
# From the text: as §1
# The test suspension was sprayed to the point of run-off on wheat seedlings. The following day the seedlings were inoculated with a spore dust of Erysiphe graminis f. sp. tritici, (the causal agent of wheat powdery mildew) and incubated in a growth chamber at 20° C. for 8 days, after which time visual disease ratings were made.
# as §3
row,SMILES,Test E disease control rating [%]
1,N#Cc1cc(-c2ccccc2NC(=O)c2ncccc2C(F)(F)F)cnc1-n1ccc(C(F)(F)F)n1 [compound 105],81
2,Cn1cc(C(=O)Nc2ccccc2-c2cnc(-n3ccc(C(F)(F)F)n3)c(C#N)c2)c(C(F)F)n1 [compound 106],98
3,Cc1nc(C(F)(F)F)c(C(=O)Nc2ccccc2-c2cnc(-n3ccc(C(F)(F)F)n3)c(C#N)c2)s1 [compound 107],43
4,N#Cc1cc(-c2ccccc2NC(=O)c2nccnc2Cl)cnc1-n1ccc(C(F)(F)F)n1 [compound 108],87

# Same assay, conditions: values marked with asterisk (*), meaning not given
row,SMILES,Test E disease control rating
1,O=C(Nc1ccccc1-c1cnc(-n2ccc(C(F)(F)F)n2)c(Cl)c1)c1ccsc1 [compound 112],0* %
2,Cc1cc(C)c(C(=O)Nc2ccccc2-c2cnc(-n3ccc(C(F)(F)F)n3)c(Cl)c2)s1 [compound 116],64* %
3,O=C(Nc1ccccc1-c1cnc(-n2ccc(C(F)(F)F)n2)c(Cl)c1)c1occc1Br [compound 117],64* %
4,Cc1occc1C(=O)Nc1ccccc1-c1cnc(-n2ccc(C(F)(F)F)n2)c(Cl)c1 [compound 118],0* %
5,O=C(Nc1ccccc1-c1cnc(-n2ccc(C(F)(F)F)n2)c(Cl)c1)c1ccsc1Cl [compound 120],0* %
6,Cc1oncc1C(=O)Nc1ccccc1-c1cnc(-n2ccc(C(F)(F)F)n2)c(Cl)c1 [compound 128],13* %
7,Cn1ncnc1C(=O)Nc1ccccc1-c1cnc(-n2ccc(C(F)(F)F)n2)c(Cl)c1 [compound 129],0* %
8,Cc1sccc1C(=O)Nc1ccccc1-c1cnc(-n2ccc(C(F)(F)F)n2)c(Cl)c1 [compound 138],64* %
9,O=C(Nc1ccccc1-c1cnc(-n2ccc(C(F)(F)F)n2)c(Cl)c1)c1ccsc1Br [compound 139],40* %
10,CSc1ccsc1C(=O)Nc1ccccc1-c1cnc(-n2ccc(C(F)(F)F)n2)c(Cl)c1 [compound 141],0* %
11,CSc1sccc1C(=O)Nc1ccccc1-c1cnc(-n2ccc(C(F)(F)F)n2)c(Cl)c1 [compound 142],0* %
12,N#Cc1cc(-c2ccccc2NC(=O)c2sccc2I)cnc1-n1ccc(C(F)(F)F)n1 [compound 143],64* %
13,Cn1cc(C(=O)Nc2ccccc2-c2cnc(-n3cnc(C(F)(F)F)c3)c(F)c2)c(C(F)F)n1 [compound 153],40* %
14,Cc1ncsc1C(=O)Nc1ccccc1-c1cnc(-n2ccc(C(F)(F)F)n2)c(Cl)c1 [compound 164],69* %
